In patent US20220125853A1, “MATERIALS AND METHODS FOR ENHANCING BONE CELL DIFFERENTIATION” (Mayo Foundation for Medical Education and Research, priority 2016, published 2022):

Key:
BMSCs = test: RNA-seq analysis of BMSCs in response to CytoD; assay type: cell-based; conditions: 24 hour
AMSCs = test: RNA-seq analysis of AMSCs in response to CytoD; assay type: cell-based, human; conditions: 24 hour
Source text: (§1) The effect of CytoD on adipose tissue-derived MSCs (AMSCs) was investigated. AMSCs offer several advantages over other sources of MSCs, particularly in the ease of tissue harvest, isolation and expansion to generate sufficient cell numbers for therapy. Because AMSCs have limited osteogenic potential, it is necessary to design molecular strategies to improve their ability to attain a mature osteoblastic phenotype. […] Furthermore, CytoD decreased protein levels of Enhancer of Zeste Homolog 2 (EZH2), an epigenetic suppressor of osteogenic differentiation that mediates heterochromatinization of bone-related genes by trimethylation of histone 3 lysine 27 (H3K27me3).

[1] = tested on: Enhancer of Zeste Homolog 2 (EZH2); test: EZH2 protein levels and H3K27me3 marks in AMSCs; assay type: cell-based, human
Source text: as §1

[2] = tested on: adipose tissue-derived MSCs (AMSCs); test: Osteogenic differentiation of AMSCs (alkaline phosphatase activity, mineralization, osteogenic polypeptide expression); assay type: cell-based, human; conditions: throughout the cell culture time-course
Source text: as §1

MC3T3 cells = test: mRNAseq gene expression in differentiating MC3T3 cells / preosteoblasts; assay type: cell-based
Experimental: The molecular mechanisms by which EZH2 inhibition promotes osteogenic differentiation were assessed. […] This quiescent state is conducive for expression of bone-related extracellular matrix proteins (e.g., collagens) that support matrix mineralization. […] Several Wnt ligands (e.g., Wnt10b, Wnt10a, and Wnt6) are robustly expressed in differentiating MC3T3 cells.

[3] = tested on: estrogen-depleted (ovariectomized) mice; test: Osteo-protective effect of EZH2 inactivation in estrogen-depleted (ovariectomized) mice; assay type: in vivo
Source text: (§2) Bone stimulatory therapeutics that promote bone formation include bone morphogenetic proteins (e.g., BMP2) and intermittent treatment with parathyroid hormone (PTH) or PTH related protein, as well as antibody-suppression of WNT inhibitors (e.g., SOST). Furthermore, inactivation of EZH2, an epigenetic regulator with histone 3 lysine 27 (H3K27) methyltransferase activity, using a pharmacological inhibitor (GSK126) is bone anabolic in skeletally mature mice and osteo-protective in estrogen-depleted (ovariectomized) mice. These biological effects are directly related to the ability of EZH2 inhibition to promote osteogenic differentiation and inhibit adipogenic differentiation of mesenchymal stem cells.

skeletally mature mice = test: Bone anabolic effect of EZH2 inactivation in skeletally mature mice; assay type: in vivo
Source text: as §2

Structure (SMILES) | program of other osteogenic markers, including those linked to the BMP2-RUNX2 axis (e.g., SP7) (BMSCs) | program of other osteogenic markers, including those linked to the BMP2-RUNX2 axis (e.g., SP7) (AMSCs) | levels of H3K27me3 marks [1] | protein levels of EZH2 [1] | alkaline phosphatase activity [2] | expression of osteogenic polypeptides RUNX2, ALP, OPG and TGFβ3 [2] | mineralization [2] | expression of pro-osteogenic Wnt10b (MC3T3 cells; differentiating MC3T3 cells, EZH2 inhibition) | expression of the PTH receptor (Pthr1h) (MC3T3 cells; preosteoblasts) | effect on bone [3] | effect on bone (skeletally mature mice)
C=C1[C@@H](C)[C@H]2[C@H](Cc3ccccc3)NC(=O)[C@]23[C@H](OC(C)=O)/C=C/[C@@](C)(O)C(=O)[C@@H](C)C/C=C/[C@H]3[C@@H]1O [CytoD, cytochalasin D] | significant upregulation | significant upregulation | decreased levels | decreased | significant increases | significant increases | significant increases | – | – | – | –
CC[C@H](C)n1cc(C)c2c(C(=O)NCc3c(C)cc(C)[nH]c3=O)cc(-c3ccc(N4CCNCC4)nc3)cc21 [GSK126] | – | – | – | – | – | – | – | greatly up-regulated | enhanced | osteo-protective | bone anabolic
